Experimental data taken from patent publication US11959067B2, “Bifidobacterium lactis strain for preventing or treating colitis and method for preventing or alleviating colitis” (HARBIN SUNFLOWER PHARMACEUTICAL CO., LTD., priority 2021, dated 2024).
Counter-ions that a name gives are not always drawn.

Assays:
[1] = system: CTX-induced immunocompromised mouse model; assay: Pathological changes of small intestinal mucosal tissue (HE staining) in CTX mice; format: in vivo, BALB/c male mice; settings: LEV 10 mg·kg^−1, CTX mice, FIG. 9
Procedure: (§1) SPF BALB/c male mice that each were 6 to 8 weeks old and weighed 18 g to 22 g were provided by Liaoning Changsheng Biotechnology Co., Ltd., with animal license No.: SCXK (Liao) 2020-0001. The BALB/c mice were randomly divided into 7 groups, with 8 mice in each group. Mice in the blank group and model group were each orally gavaged with 0.4 mL of NS, mice in the positive control group were each orally gavaged with levamisole hydrochloride (LEV) (10 mg·kg^−1), and mice in the B. lactis strain XLTG11 dose groups were orally gavaged with 0.4 mL of B. lactis strain XLTG11 suspensions at doses of 1×10^9 cfu, 1×10^8 cfu, 1×10^7 cfu, and 1×10^6 cfu per mouse, respectively. The mice were orally gavaged continuously for 28 d, during which the mice could eat and drink freely. On day 23 and day 24 after the oral gavage, mice in the model group, positive control group, and B. lactis strain XLTG11 dose groups were intraperitoneally injected with CTX (40 mg·kg^−1), and mice in the blank group were intraperitoneally injected with an equal volume of NS.

[2] = system: CTX-induced immunocompromised mouse model; format: in vivo
Procedure: as §1

[3] = system: CTX-induced immunocompromised mouse model; format: in vivo; settings: serum, CTX mice, LEV 10 mg·kg^−1
Procedure: as §1
min after the last oral gavage to mice in each group, eyeballs were removed, the whole blood was collected and centrifuged at 3000 r·min^−1 for 10 min, and the resulting serum was collected, dispensed, and frozen in a −80° C. refrigerator for test. Serum IgA, IgG, IL-2, IL-6, IFN-γ, and TNF-α levels were determined with an ELISA kit, and specific operation steps were conducted according to the instructions.

[4] = system: CTX-induced immunocompromised mouse model; assay: Villus height of small intestinal mucosa in CTX mice; format: in vivo, BALB/c male mice; settings: LEV 10 mg·kg^−1, vs model group, P<0.05, FIG. 10
Procedure: as §1

c1ccc([C@H]2CN3CCSC3=N2)cc1 [Positive control, levamisole hydrochloride]
damage of the small intestinal mucosal tissue [1]: improved | Toe thickness difference ([2]; LEV 10 mg·kg^−1, CTX mice, before vs 24 h after SRBC injection): 0.054 cm | Goblet cell number ([2]; LEV 10 mg·kg^−1, CTX mice, number of goblet cells/epithelial length (mm)): 25.22 | Spleen index ([2]; LEV 10 mg·kg^−1 oral gavage 28 d, CTX mice, spleen mass (mg)/body mass (g)): 2.97 | Thymus index ([2]; LEV 10 mg·kg^−1 oral gavage 28 d, CTX mice, thymus mass (mg)/body mass (g)): 1.42 | IFN-γ [3]: 466.78 ± 62.60 ng/L | IL-2 [3]: 666.32 ± 134.02 ng/L | IL-6 [3]: 77.12 ± 17.49 pg/mL | IgA [3]: 55.95 ± 3.66 ng/mL | IgG [3]: 467.59 ± 54.35 ng/mL | TNF-α [3]: 496.86 ± 49.31 ng/L | small intestinal villus height [4]: increased
